Data published in ChEMBL document CHEMBL4028802, “DILIrank: the largest reference drug list ranked by the risk for developing drug-induced liver injury in humans” (Drug Discov Today, 2016).
Starred links: 1 amine or outer side, 2 acyl side, 3 side chain; linkers in the order of their positions; H or OH if unused. Positions of bridges follow the written chain, without caps; N, C: chain ends. Non-standard residues stand in square brackets, D forms with d. Residues, ends and D or L forms follow the SMILES beside them. *: point of attachment. pTerphenylCO(4''-OnC5H11) = CCCCCOc1ccc(-c2ccc(-c3ccc(C(=O)*)cc3)cc2)cc1; Orn(4R-OH,5R-OH) = O=C([C@H](C[C@@H](O)[C@@H](O)N[*:3])N[*:1])[*:2]; hTyr(3S-OH,4S-OH) = N[C@H](C(=O)O)[C@H](O)[C@@H](O)c1ccc(O)cc1; Pro(3S-OH,4S-Me) = C[C@H]1CN[C@H](C(=O)O)[C@H]1O; Hyp = O=C(O)[C@@H]1C[C@@H](O)CN1

Legend:
Homo sapiens [1] = species: Homo sapiens; assay: Liver toxicity in human assessed as induction of drug-induced liver injury by measuring verified drug-induced liver injury concern status
Homo sapiens [2] = species: Homo sapiens; assay: Liver toxicity in human assessed as induction of drug-induced liver injury by measuring severity class index
Wherever DILI severity class is given: key of the grades not given here.

Row | SMILES | DILI_Concern (Homo sapiens [1]) | DILI_severity_class (Homo sapiens [2])
1 | COC(=O)C1=C(C)NC(C)=C(C(=O)OCCN(C)Cc2ccccc2)C1c1cccc([N+](=O)[O-])c1 (stereo not drawn) [NICARDIPINE] | Ambiguous-Dili-Concern | 3
2 | CC(C)NCC(O)COc1cccc2ccccc12 (stereo not drawn) [PROPRANOLOL] | Ambiguous-Dili-Concern | 3
3 | Nc1ncnc2c1ncn2CCOCP(=O)(O)O [ADEFOVIR] | Less-Dili-Concern | 2
4 | Cc1cccc(CN2CCN(C(c3ccccc3)c3ccc(Cl)cc3)CC2)c1 (stereo not drawn) [MECLIZINE] | No-Dili-Concern | 0
5 | COc1cccc2c1[C@@H]1CN(CCCCn3c(=O)[nH]c4c(sc5ncc(-c6ccccc6)nc54)c3=O)C[C@@H]1CO2 [FIDUXOSIN] | Most-Dili-Concern | 8
6 | CCn1cc(C(=O)O)c(=O)c2cc(F)c(N3CCNCC3)cc21 [NORFLOXACIN] | Less-Dili-Concern | 3
7 | Clc1ccc2nsnc2c1NC1=NCCN1 [TIZANIDINE] | Most-Dili-Concern | 8
8 | CC(C)(C)NCC(O)COc1cccc2c1CC(O)C(O)C2 (stereo not drawn) [NADOLOL] | Ambiguous-Dili-Concern | 3
9 | O=C(Oc1ccccc1C(=O)O)c1ccccc1O [SALSALATE] | Less-Dili-Concern | 3
10 | O=C1c2c(O)ccc(O)c2C(=O)c2c(NCCNCCO)ccc(NCCNCCO)c21 [MITOXANTRONE] | Less-Dili-Concern | 3
11 | CCOC(=O)C1(c2ccccc2)CCN(CCC(C#N)(c2ccccc2)c2ccccc2)CC1 [DIPHENOXYLATE] | No-Dili-Concern | 0
12 | C=C1[C@H](CO)[C@@H](O)C[C@@H]1n1cnc2c(=O)[nH]c(N)nc21.O | Ambiguous-Dili-Concern | 7
13 | CC[C@H]1OC(=O)[C@H](C)[C@@H](O[C@H]2C[C@@](C)(OC)[C@@H](O)[C@H](C)O2)[C@H](C)[C@@H](O[C@@H]2O[C@H](C)C[C@H](N(C)C)[C@H]2O)[C@](C)(O)C[C@@H](C)C(=O)[C@H](C)[C@@H](O)[C@]1(C)O [ERYTHROMYCIN] | Most-Dili-Concern | 5
14 | C#CCC(Cc1cnc2nc(N)nc(N)c2n1)c1ccc(C(=O)N[C@@H](CCC(=O)O)C(=O)O)cc1 (stereo partly drawn) [PRALATREXATE] | Ambiguous-Dili-Concern | 3
15 | CN(C)CCOC(c1ccccc1)c1ccccc1 [DIPHENHYDRAMINE] | No-Dili-Concern | 0
16 | Nc1ccn([C@@H]2O[C@H](CO)[C@@H](O)C2(F)F)c(=O)n1 [GEMCITABINE] | Most-Dili-Concern | 8
17 | Cc1ccc(-c2cc(C(F)(F)F)nn2-c2ccc(S(N)(=O)=O)cc2)cc1 [CELECOXIB] | Less-Dili-Concern | 3
18 | CC(C)[C@H](N)C(=O)OCC(CO)OCn1cnc2c(=O)nc(N)[nH]c21 (stereo partly drawn) [VALGANCICLOVIR] | Ambiguous-Dili-Concern | 3
19 | CO[C@@]1(NC(=O)C2SC(=C(C(N)=O)C(=O)O)S2)C(=O)N2C(C(=O)O)=C(CSc3nnnn3C)CS[C@@H]21 (stereo partly drawn) [CEFOTETAN] | Ambiguous-Dili-Concern | 3
20 | CCC[C@@H]1C[C@@H](C(=O)N[C@@H]([C@H]2O[C@H](SC)[C@H](OP(=O)(O)O)[C@@H](O)[C@H]2O)[C@H](C)Cl)N(C)C1 [CLINDAMYCIN PHOSPHATE] | Ambiguous-Dili-Concern | 3

Row | SMILES | DILI_Concern (Homo sapiens [1]) | DILI_severity_class (Homo sapiens [2])
21 | Cc1c(O)cccc1C(=O)N[C@@H](CSc1ccccc1)[C@H](O)CN1C[C@H]2CCCC[C@H]2C[C@H]1C(=O)NC(C)(C)C | Less-Dili-Concern | 3
22 | C[C@@H](O)[C@@H]1NC(=O)[C@H](CCCCN)NC(=O)[C@@H](Cc2c[nH]c3ccccc23)NC(=O)[C@H](Cc2ccccc2)NC(=O)[C@@H](NC(=O)[C@H](N)Cc2ccccc2)CSSC[C@@H](C(=O)N[C@H](CO)[C@@H](C)O)NC1=O [OCTREOTIDE] | Less-Dili-Concern | 2
23 | COc1c2occc2cc2ccc(=O)oc12 [METHOXSALEN] | Less-Dili-Concern | 3
24 | CCCCCOc1ccc(-c2ccc(-c3ccc(C(=O)N[C@H]4C[C@@H](O)[C@@H](O)NC(=O)[C@@H]5[C@@H](O)[C@@H](C)CN5C(=O)[C@H]([C@@H](C)O)NC(=O)[C@H]([C@H](O)[C@@H](O)c5ccc(O)cc5)NC(=O)[C@@H]5C[C@@H](O)CN5C(=O)[C@H]([C@@H](C)O)NC4=O)cc3)cc2)cc1 [ANIDULAFUNGIN] ({pTerphenylCO(4''-OnC5H11)}-[Orn(4R-OH,5R-OH)]T[Hyp][hTyr(3S-OH,4S-OH)]T[Pro(3S-OH,4S-Me)]; lactam 1-C) | Ambiguous-Dili-Concern | 7
25 | Nc1ccn([C@@H]2O[C@H](CO)[C@@H](O)[C@@H]2O)c(=O)n1 [CYTARABINE] | Most-Dili-Concern | 3
26 | Cc1ncc([N+](=O)[O-])n1CCO [METRONIDAZOLE] | Less-Dili-Concern | 3
27 | CC(C)[N+](C)(CCOC(=O)C1c2ccccc2Oc2ccccc21)C(C)C [PROPANTHELINE] | No-Dili-Concern | 0
28 | CCS(=O)(=O)CCn1c([N+](=O)[O-])cnc1C [TINIDAZOLE] | Less-Dili-Concern | 3
29 | O=S(=O)([O-])CCS.[Na+] [MESNA] | Ambiguous-Dili-Concern | 3
30 | Nc1ncn([C@@H]2O[C@H](CO)[C@@H](O)[C@H]2O)c(=O)n1 [AZACITIDINE] | Ambiguous-Dili-Concern | 8
31 | CC1=NS(=O)(=O)c2cc(Cl)ccc2N1 [DIAZOXIDE] | Ambiguous-Dili-Concern | 3
32 | Clc1ccccc1CN1CCc2sccc2C1 [TICLOPIDINE] | Most-Dili-Concern | –
33 | O=C1Cc2cc(CCN3CCN(c4nsc5ccccc45)CC3)c(Cl)cc2N1 [ZIPRASIDONE] | Less-Dili-Concern | 3
34 | CC(C)NCC(O)COc1cccc2[nH]ccc12 (stereo not drawn) [PINDOLOL] | No-Dili-Concern | 0
35 | COc1nc(N)nc2c1ncn2[C@@H]1O[C@H](CO)[C@@H](O)[C@@H]1O [NELARABINE] | Less-Dili-Concern | 4
36 | CN(C)C(=O)Oc1ccc[n+](C)c1 [PYRIDOSTIGMINE] | No-Dili-Concern | 0
37 | CN1[C@@H]2CC[C@H]1C[C@@H](OC(=O)C(CO)c1ccccc1)C2 (stereo partly drawn) [ATROPINE] | No-Dili-Concern | 0
38 | CC(CCc1ccc(O)cc1)NCCc1ccc(O)c(O)c1 (stereo not drawn) [DOBUTAMINE] | No-Dili-Concern | 0
39 | CN(C)CC(c1ccc(O)cc1)C1(O)CCCCC1 (stereo not drawn) [DESVENLAFAXINE] | Less-Dili-Concern | 3
40 | COCCc1ccc(OCC(O)CNC(C)C)cc1 (stereo not drawn) [METOPROLOL] | Less-Dili-Concern | 5

Row | SMILES | DILI_Concern (Homo sapiens [1]) | DILI_severity_class (Homo sapiens [2])
41 | CCCCc1oc2ccccc2c1C(=O)c1cc(I)c(OCCN(CC)CC)c(I)c1 [AMIODARONE] | Most-Dili-Concern | 8
42 | Cc1ccc(Cl)c(Nc2ccccc2C(=O)O)c1Cl [MECLOFENAMIC ACID] | Ambiguous-Dili-Concern | 3
43 | CC1(C)S[C@@H]2[C@H](NC(=O)Cc3ccccc3)C(=O)N2[C@H]1C(=O)O [PENICILLIN G] | Less-Dili-Concern | 3
44 | CS(=O)(=O)OCCCCOS(C)(=O)=O [BUSULFAN] | Most-Dili-Concern | 8
45 | O.O=P(O)(O)C(O)(Cn1ccnc1)P(=O)(O)O [ZOLEDRONIC ACID] | Less-Dili-Concern | 0
46 | Sc1ncnc2nc[nH]c12 [MERCAPTOPURINE ANHYDROUS] | Most-Dili-Concern | 8
47 | NC(=O)c1ncn([C@@H]2O[C@H](CO)[C@@H](O)[C@H]2O)n1 [RIBAVIRIN] | Ambiguous-Dili-Concern | 7
48 | CSCC[C@H](NC(=O)[C@H](Cc1c[nH]c2ccccc12)NC(=O)CCNC(=O)OC(C)(C)C)C(=O)N[C@@H](CC(=O)O)C(=O)N[C@@H](Cc1ccccc1)C(N)=O [PENTAGASTRIN] | No-Dili-Concern | 0
49 | CCN(CC)C(=O)/C(C#N)=C/c1cc(O)c(O)c([N+](=O)[O-])c1 [ENTACAPONE] | Less-Dili-Concern | 0
50 | O=C(OCC(O)CO)c1ccccc1Nc1ccnc2cc(Cl)ccc12 (stereo not drawn) [GLAFENINE] | Most-Dili-Concern | 8
51 | COc1cccc(C2(O)CCCCC2CN(C)C)c1 (stereo not drawn) [TRAMADOL] | Ambiguous-Dili-Concern | 7
52 | CC(C)(C)NC(=O)[C@@H]1CN(Cc2cccnc2)CCN1C[C@@H](O)C[C@@H](Cc1ccccc1)C(=O)N[C@H]1c2ccccc2C[C@H]1O.O | Ambiguous-Dili-Concern | 8
53 | CN1C2CCCC1CC(NC(=O)c1nn(C)c3ccccc13)C2 (stereo not drawn) [GRANISETRON] | Ambiguous-Dili-Concern | 3
54 | C[C@]12C/C(=C/O)C(=O)C[C@@H]1CC[C@@H]1[C@@H]2CC[C@@]2(C)[C@H]1CC[C@]2(C)O [OXYMETHOLONE] | Most-Dili-Concern | 7
55 | C=CCC1(C(C)CCC)C(=O)NC(=O)NC1=O (stereo not drawn) [SECOBARBITAL] | Ambiguous-Dili-Concern | 3
56 | O=C(O)c1cc(=O)c2cc(OCC(O)COc3cccc4oc(C(=O)O)cc(=O)c34)ccc2o1 (stereo not drawn) | – | 3
57 | CC(=O)Nc1ccc(O)cc1 [ACETAMINOPHEN] | Most-Dili-Concern | –
58 | COc1ccc(CCN(C)CCCC(C#N)(c2ccc(OC)c(OC)c2)C(C)C)cc1OC (stereo not drawn) | Less-Dili-Concern | –
59 | CN(C)CCCN1c2ccccc2CCc2ccccc21 [IMIPRAMINE] | Less-Dili-Concern | –
